Measurements taken from PubChem BioAssay (NCI).
≈ marks a conversion by molar mass, not a printed value.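 In this assay, cells in 96-well plates receive the compound at five concentrations for 48 hours. Endpoints are linearly interpolated between the surrounding concentrations. GI50 is the concentration that inhibits growth by half. Definition used: TGI = concentration required for complete inhibition of growth.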

How the values were obtained:
Test in all cases: growth of human tumour cells (NCI), 48 h
[1] = tested on: HCT-116 colon
[2] = tested on: HL-60(TB) leukemia
[3] = tested on: CCRF-CEM leukemia
[4] = tested on: EKVX NSCLC
[5] = tested on: HS 578T breast
[6] = tested on: A549 NSCLC
[7] = tested on: K-562 leukemia
[8] = tested on: UO-31 renal
[9] = tested on: SW-620 colon
[10] = tested on: ACHN renal
[11] = tested on: NCI-H460 lung
[12] = tested on: NCI/ADR-RES ovarian
[13] = tested on: MDA-MB-435
[14] = tested on: U251 CNS
[15] = tested on: 786-0 renal
[16] = tested on: HOP-92 NSCLC
[17] = tested on: MOLT-4 leukemia
[18] = tested on: MALME-3M melanoma
[19] = tested on: MCF7 breast
[20] = tested on: SF-295 CNS
[21] = tested on: OVCAR-3 ovarian
[22] = tested on: RPMI-8226 leukemia
[23] = tested on: DU-145 prostate
[24] = tested on: M14 melanoma
[25] = tested on: NCI-H23 lung
[26] = tested on: SN12C renal
[27] = tested on: A498 renal
[28] = tested on: RXF 393 renal
[29] = tested on: NCI-H226 lung
[30] = tested on: HCT-15 colon
[31] = tested on: SK-MEL-28 melanoma
[32] = tested on: BT-549 breast
[33] = tested on: PC-3 prostate
[34] = tested on: SF-539 CNS
[35] = tested on: UACC-257 melanoma
[36] = tested on: OVCAR-5 ovarian
[37] = tested on: SNB-19 CNS
[38] = tested on: TK-10 renal
[39] = tested on: HT29 colon
[40] = tested on: COLO 205 colon
[41] = tested on: OVCAR-8 ovarian
[42] = tested on: SR leukemia
[43] = tested on: SF-268 CNS
[44] = tested on: T-47D breast
[45] = tested on: KM12 colon
[46] = tested on: HOP-62 NSCLC

SMILES: CCCOC(C)OCCC#CCC(C)OC(=O)CC(Cl)(Cl)Cl (stereo not given)
- GI50 [1]: 50.8 µg/mL (≈ 136 µM)
- GI50 [2]: 46.5 µg/mL (≈ 125 µM)
- GI50 [3]: 22.6 µg/mL (≈ 60.4 µM)
- GI50 [4]: 98.4 µg/mL (≈ 263 µM)
- GI50 [5]: 56.8 µg/mL (≈ 152 µM)

SMILES: O=S(=O)(N=S(c1ccccc1)c1ccccc1)c1ccccc1
- TGI [6]: > 100 µM
- TGI [7]: > 100 µM
- TGI [8]: > 100 µM
- TGI [9]: > 100 µM
- TGI [10]: > 100 µM
- TGI [11]: > 100 µM
- TGI [12]: > 100 µM
- TGI [13]: > 100 µM
- TGI [14]: > 100 µM
- TGI [1]: > 100 µM
- TGI [15]: > 100 µM
- TGI [16]: > 100 µM
- TGI [2]: > 100 µM
- TGI [17]: > 100 µM
- TGI [18]: > 100 µM
- TGI [19]: > 100 µM
- TGI [20]: > 100 µM
- TGI [21]: > 100 µM
- TGI [22]: > 100 µM
- TGI [23]: > 100 µM
- TGI [24]: > 100 µM
- TGI [25]: > 100 µM
- TGI [26]: > 100 µM
- TGI [27]: > 100 µM
- TGI [28]: > 100 µM
- TGI [29]: > 100 µM
- TGI [30]: > 100 µM
- TGI [31]: > 100 µM
- TGI [32]: > 100 µM
- TGI [33]: > 100 µM
- TGI [34]: > 100 µM
- TGI [35]: > 100 µM
- TGI [36]: > 100 µM
- TGI [37]: > 100 µM
- TGI [38]: > 100 µM
- TGI [3]: > 100 µM
- TGI [39]: > 100 µM
- TGI [40]: > 100 µM
- TGI [41]: > 100 µM
- TGI [42]: > 100 µM
- TGI [43]: > 100 µM
- TGI [44]: > 100 µM
- TGI [45]: > 100 µM
- TGI [4]: > 100 µM
- TGI [46]: > 100 µM
